Measurements as given in PubChem BioAssay (NCI).
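Values below derive from 48-hour exposures of cells grown in 96-well plates, with endpoints linearly interpolated between the two concentrations bracketing the appropriate inhibition level. GI50 marks 50% less growth. TGI denotes the concentration required for complete inhibition of growth.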

Experiments:
Assay in all cases: growth of human tumour cells (NCI), 48 h
[1] = tested on: A498 renal
[2] = tested on: A549 NSCLC
[3] = tested on: BT-549 breast
[4] = tested on: CAKI-1 renal
[5] = tested on: CCRF-CEM leukemia
[6] = tested on: COLO 205 colon
[7] = tested on: DU-145 prostate
[8] = tested on: EKVX NSCLC
[9] = tested on: HCC-2998 colon
[10] = tested on: HCT-116 colon
[11] = tested on: HL-60(TB) leukemia
[12] = tested on: HOP-62 NSCLC
[13] = tested on: HS 578T breast
[14] = tested on: HT29 colon
[15] = tested on: K-562 leukemia
[16] = tested on: MALME-3M melanoma
[17] = tested on: MCF7 breast
[18] = tested on: MDA-MB-231 breast
[19] = tested on: MDA-MB-435
[20] = tested on: MOLT-4 leukemia
[21] = tested on: NCI-H460 lung
[22] = tested on: NCI-H522 lung
[23] = tested on: NCI/ADR-RES ovarian
[24] = tested on: OVCAR-4 ovarian
[25] = tested on: OVCAR-5 ovarian
[26] = tested on: OVCAR-8 ovarian
[27] = tested on: RPMI-8226 leukemia
[28] = tested on: SF-268 CNS
[29] = tested on: SF-295 CNS
[30] = tested on: SK-MEL-2 melanoma
[31] = tested on: SK-MEL-28 melanoma
[32] = tested on: SK-MEL-5 melanoma
[33] = tested on: SK-OV-3 ovarian
[34] = tested on: SN12C renal
[35] = tested on: SNB-75 CNS
[36] = tested on: SR leukemia
[37] = tested on: SW-620 colon
[38] = tested on: T-47D breast
[39] = tested on: TK-10 renal
[40] = tested on: UACC-257 melanoma
[41] = tested on: UACC-62 melanoma

C#Cc1ccc(NC(=O)c2ccc(/C=C/C(=O)c3nccn3C)cc2)c(F)c1
GI50 [1]: 2500 nM | TGI [1]: > 50000 nM | GI50 [2]: 1510 nM | TGI [2]: > 50000 nM | GI50 [3]: 823 nM | TGI [3]: 2250 nM | GI50 [4]: 2270 nM | TGI [4]: > 50000 nM | GI50 [5]: 1080 nM | TGI [5]: 5850 nM | GI50 [6]: 4020 nM | TGI [6]: > 50000 nM | GI50 [7]: 1810 nM | TGI [7]: 45600 nM | GI50 [8]: 1410 nM | TGI [8]: > 50000 nM | GI50 [9]: 1740 nM | TGI [9]: > 50000 nM | GI50 [10]: 876 nM | TGI [10]: 1940 nM | GI50 [11]: 844 nM | TGI [11]: 2430 nM | GI50 [12]: 1540 nM | TGI [12]: > 50000 nM | GI50 [13]: 1880 nM | TGI [13]: > 50000 nM | GI50 [14]: 1490 nM | TGI [14]: > 50000 nM | GI50 [15]: 853 nM | TGI [15]: > 50000 nM | GI50 [16]: 3760 nM | TGI [16]: > 50000 nM | GI50 [17]: 1290 nM | TGI [17]: > 50000 nM | GI50 [18]: 2140 nM | TGI [18]: 22400 nM | GI50 [19]: 1860 nM | TGI [19]: > 50000 nM | GI50 [20]: 1370 nM | TGI [20]: 5420 nM | GI50 [21]: 1120 nM | TGI [21]: 2680 nM | GI50 [22]: 2160 nM | TGI [22]: > 50000 nM | GI50 [23]: 1500 nM | TGI [23]: > 50000 nM | GI50 [24]: 2650 nM | TGI [24]: > 50000 nM | GI50 [25]: 1770 nM | TGI [25]: > 50000 nM | GI50 [26]: 1910 nM | TGI [26]: > 50000 nM | GI50 [27]: 522 nM | TGI [27]: 2140 nM | GI50 [28]: 1630 nM | TGI [28]: > 50000 nM | GI50 [29]: 1740 nM | TGI [29]: 16800 nM | GI50 [30]: > 50000 nM | TGI [30]: > 50000 nM | GI50 [31]: > 50000 nM | TGI [31]: > 50000 nM | GI50 [32]: 2040 nM | TGI [32]: > 50000 nM | GI50 [33]: 2530 nM | TGI [33]: > 50000 nM | GI50 [34]: 1440 nM | TGI [34]: > 50000 nM | GI50 [35]: 1000 nM | TGI [35]: 4340 nM | GI50 [36]: 545 nM | TGI [36]: 4440 nM | GI50 [37]: 1330 nM | TGI [37]: > 50000 nM | GI50 [38]: 1840 nM | TGI [38]: > 50000 nM | GI50 [39]: > 50000 nM | TGI [39]: > 50000 nM | GI50 [40]: > 50000 nM | TGI [40]: > 50000 nM | GI50 [41]: 1930 nM | TGI [41]: > 50000 nM
